According to PubChem BioAssay (NCI):
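Grown in 96-well plates, cells were treated for 48 hours with each compound at five concentrations. Insufficient inhibition: endpoint recorded as highest concentration tested. The concentration for full growth arrest is given as TGI.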

The molecules below were run on IGROV1 ovarian (assay: NCI tumour cell line growth inhibition, 48 h).
Molecule CCN(CC)C1CC(O[C@H]2C[C@](O)(C(=O)CO)Cc3c(O)c4c(c(O)c32)C(=O)c2c(OC)cccc2C4=O)OC(C)C1O (some centres undefined) has a TGI of 4.66 µM.

Each molecule was assayed on UACC-257 melanoma (assay: NCI tumour cell line growth inhibition, 48 h).
Molecule CC(=O)O[C@H]1CCC2[C@@H]3CC[C@]4(C)CC(=O)C=C[C@]4(C)C3CC[C@@]21C (some centres undefined) has a TGI of 43.9 µM.
For O=C(CCc1nc(=S)[nH][nH]1)Nc1ccccc1Cl, the TGI was greater than 100 µM.
O=C(CC(=O)n1nc(-c2ccccc2)c(N=Nc2ccc(Cl)cc2)c1-c1ccccc1)Nc1ccc(Cl)cc1 gave a TGI greater than 100 µM.
COC(=O)C12CC3CC(CC(C(=O)O)(C3)C1)C2 showed a TGI greater than 100 µM.
Molecule CCCCCCc1cc(C(=O)Nc2ccc(Cl)cc2)nc(=S)[nH]1 has a TGI greater than 100 µM.
COc1cc2cc3c4cc(OC)c(OC)cc4cc[n+]3c(C)c2cc1OC (tested in a mixture with another compound) showed a TGI greater than 55.5 µM.
For CCN(CC)C1CC(O[C@H]2C[C@](O)(C(=O)CO)Cc3c(O)c4c(c(O)c32)C(=O)c2c(OC)cccc2C4=O)OC(C)C1O (some centres undefined), the TGI was 0.305 µM.

Each molecule was assayed on DU-145 prostate (assay: NCI tumour cell line growth inhibition, 48 h).
Work on CC(=O)O[C@H]1CCC2[C@@H]3CC[C@]4(C)CC(=O)C=C[C@]4(C)C3CC[C@@]21C (some centres undefined) yielded a TGI greater than 100 µM.
COc1cc2cc3c4cc(OC)c(OC)cc4cc[n+]3c(C)c2cc1OC (tested in a mixture with another compound) gave a TGI greater than 100 µM.

These molecules were tested on XF 498 CNS (assay: NCI tumour cell line growth inhibition, 48 h).
O=C(CCc1nc(=S)[nH][nH]1)Nc1ccccc1Cl was tested, and the TGI was greater than 100 µM.
Molecule COC(=O)C12CC3CC(CC(C(=O)O)(C3)C1)C2 has a TGI greater than 100 µM.
COc1cc2cc3c4cc(OC)c(OC)cc4cc[n+]3c(C)c2cc1OC (tested in a mixture with another compound) gave a TGI greater than 100 µM.
In the case of CCN(CC)C1CC(O[C@H]2C[C@](O)(C(=O)CO)Cc3c(O)c4c(c(O)c32)C(=O)c2c(OC)cccc2C4=O)OC(C)C1O (some centres undefined), the TGI is reported as 0.223 µM.

What follows are molecules tested on BT-549 breast (assay: NCI tumour cell line growth inhibition, 48 h).
Work on CC(=O)O[C@H]1CCC2[C@@H]3CC[C@]4(C)CC(=O)C=C[C@]4(C)C3CC[C@@]21C (some centres undefined) yielded a TGI of 32.1 µM.
With COc1cc2cc3c4cc(OC)c(OC)cc4cc[n+]3c(C)c2cc1OC (tested in a mixture with another compound) the TGI was greater than 100 µM.

These molecules were tested on SNB-78 CNS (assay: NCI tumour cell line growth inhibition, 48 h).
CC(=O)O[C@H]1CCC2[C@@H]3CC[C@]4(C)CC(=O)C=C[C@]4(C)C3CC[C@@]21C (some centres undefined) gave a TGI of 22.3 µM.
In the case of O=C(CCc1nc(=S)[nH][nH]1)Nc1ccccc1Cl, the TGI is reported as greater than 100 µM.
O=C(CC(=O)n1nc(-c2ccccc2)c(N=Nc2ccc(Cl)cc2)c1-c1ccccc1)Nc1ccc(Cl)cc1 was tested, and the TGI was greater than 100 µM.
In the case of COC(=O)C12CC3CC(CC(C(=O)O)(C3)C1)C2, the TGI is reported as greater than 100 µM.
COc1cc2cc3c4cc(OC)c(OC)cc4cc[n+]3c(C)c2cc1OC (tested in a mixture with another compound) gave a TGI greater than 92.9 µM.
Work on CCN(CC)C1CC(O[C@H]2C[C@](O)(C(=O)CO)Cc3c(O)c4c(c(O)c32)C(=O)c2c(OC)cccc2C4=O)OC(C)C1O (some centres undefined) yielded a TGI of 0.785 µM.

Each molecule was assayed on HCC-2998 colon (assay: NCI tumour cell line growth inhibition, 48 h).
Molecule CC(=O)O[C@H]1CCC2[C@@H]3CC[C@]4(C)CC(=O)C=C[C@]4(C)C3CC[C@@]21C (some centres undefined) has a TGI greater than 88.5 µM.
Molecule O=C(CCc1nc(=S)[nH][nH]1)Nc1ccccc1Cl has a TGI greater than 100 µM.
O=C(CC(=O)n1nc(-c2ccccc2)c(N=Nc2ccc(Cl)cc2)c1-c1ccccc1)Nc1ccc(Cl)cc1 gave a TGI greater than 100 µM.
Molecule COC(=O)C12CC3CC(CC(C(=O)O)(C3)C1)C2 has a TGI greater than 100 µM.
Work on COc1cc2cc3c4cc(OC)c(OC)cc4cc[n+]3c(C)c2cc1OC (tested in a mixture with another compound) yielded a TGI greater than 100 µM.
For CCN(CC)C1CC(O[C@H]2C[C@](O)(C(=O)CO)Cc3c(O)c4c(c(O)c32)C(=O)c2c(OC)cccc2C4=O)OC(C)C1O (some centres undefined), the TGI was 0.29 µM.

Each molecule was assayed on HCT-116 colon (assay: NCI tumour cell line growth inhibition, 48 h).
For CC(=O)O[C@H]1CCC2[C@@H]3CC[C@]4(C)CC(=O)C=C[C@]4(C)C3CC[C@@]21C (some centres undefined), the TGI was 32.1 µM.
O=C(CCc1nc(=S)[nH][nH]1)Nc1ccccc1Cl was tested, and the TGI was greater than 100 µM.
In the case of O=C(CC(=O)n1nc(-c2ccccc2)c(N=Nc2ccc(Cl)cc2)c1-c1ccccc1)Nc1ccc(Cl)cc1, the TGI is reported as greater than 55.1 µM.
Work on COC(=O)C12CC3CC(CC(C(=O)O)(C3)C1)C2 yielded a TGI greater than 100 µM.
COc1cc2cc3c4cc(OC)c(OC)cc4cc[n+]3c(C)c2cc1OC (tested in a mixture with another compound) was tested, and the TGI was greater than 100 µM.
Work on CCN(CC)C1CC(O[C@H]2C[C@](O)(C(=O)CO)Cc3c(O)c4c(c(O)c32)C(=O)c2c(OC)cccc2C4=O)OC(C)C1O (some centres undefined) yielded a TGI of 1.03 µM.

Each molecule was assayed on LOX IMVI melanoma (assay: NCI tumour cell line growth inhibition, 48 h).
CC(=O)O[C@H]1CCC2[C@@H]3CC[C@]4(C)CC(=O)C=C[C@]4(C)C3CC[C@@]21C (some centres undefined) was tested, and the TGI was 30.9 µM.
O=C(CCc1nc(=S)[nH][nH]1)Nc1ccccc1Cl showed a TGI greater than 100 µM.
O=C(CC(=O)n1nc(-c2ccccc2)c(N=Nc2ccc(Cl)cc2)c1-c1ccccc1)Nc1ccc(Cl)cc1 gave a TGI greater than 56.9 µM.
Molecule COC(=O)C12CC3CC(CC(C(=O)O)(C3)C1)C2 has a TGI greater than 100 µM.
Work on COc1cc2cc3c4cc(OC)c(OC)cc4cc[n+]3c(C)c2cc1OC (tested in a mixture with another compound) yielded a TGI greater than 100 µM.
CCN(CC)C1CC(O[C@H]2C[C@](O)(C(=O)CO)Cc3c(O)c4c(c(O)c32)C(=O)c2c(OC)cccc2C4=O)OC(C)C1O (some centres undefined) showed a TGI of 0.439 µM.

What follows are molecules tested on SW-620 colon (assay: NCI tumour cell line growth inhibition, 48 h).
With CC(=O)O[C@H]1CCC2[C@@H]3CC[C@]4(C)CC(=O)C=C[C@]4(C)C3CC[C@@]21C (some centres undefined) the TGI was 33.8 µM.
For O=C(CCc1nc(=S)[nH][nH]1)Nc1ccccc1Cl, the TGI was 35.6 µM.
With O=C(CC(=O)n1nc(-c2ccccc2)c(N=Nc2ccc(Cl)cc2)c1-c1ccccc1)Nc1ccc(Cl)cc1 the TGI was greater than 62.6 µM.
Molecule COC(=O)C12CC3CC(CC(C(=O)O)(C3)C1)C2 has a TGI greater than 100 µM.
With CCCCCCc1cc(C(=O)Nc2ccc(Cl)cc2)nc(=S)[nH]1 the TGI was greater than 100 µM.
COc1cc2cc3c4cc(OC)c(OC)cc4cc[n+]3c(C)c2cc1OC (tested in a mixture with another compound) showed a TGI greater than 100 µM.
Molecule CCN(CC)C1CC(O[C@H]2C[C@](O)(C(=O)CO)Cc3c(O)c4c(c(O)c32)C(=O)c2c(OC)cccc2C4=O)OC(C)C1O (some centres undefined) has a TGI of 0.328 µM.

What follows are molecules tested on SK-OV-3 ovarian (assay: NCI tumour cell line growth inhibition, 48 h).
With CC(=O)O[C@H]1CCC2[C@@H]3CC[C@]4(C)CC(=O)C=C[C@]4(C)C3CC[C@@]21C (some centres undefined) the TGI was greater than 100 µM.
Work on O=C(CCc1nc(=S)[nH][nH]1)Nc1ccccc1Cl yielded a TGI greater than 100 µM.
